In patent publication US20070098800A1, “Therapeutic compositions” (priority 2002, published 2007):

Experiments:
[1] = test system: experimental model of arthritis created by injecting ovalbumin into the knees of rabbits; test: Ovalbumin-induced arthritis (chronic synovitis) in rabbit knees: joint swelling, ovalbumin antibody titers, histological joint damage; type: in vivo; details: compared to vehicle controls, during the 3-week period (Example 1)
Experimental: (§1) At 3-day intervals over a 3-week period, joint swelling (circumference) is assessed, synovial fluid samples (25 μl) are collected for analysis of salicylate and betamethasone concentrations, and venous blood samples (0.5 ml) are collected for analysis of salicylate and betamethasone serum concentrations and ovalbumin antibody titers. At the end of 3 weeks the animals are sacrificed for histological assessment of joint damage.
as §1, with “(circumference) was” for “(circumference) is”, “μl) were” for “μl) are”, “and lidocaine” for “and betamethasone”, “ml) were” for “ml) are”, “animals were” for “animals are”
as §1, with “morphine” for “betamethasone”, “damage. […]” for “damage.”

[2] = Synovial fluid and serum drug concentrations after single i.a. injection in arthritic rabbits; details: rabbit, single 0.1 ml i.a. injection
Experimental: as §1
as §1, with “(circumference) was” for “(circumference) is”, “μl) were” for “μl) are”, “and lidocaine” for “and betamethasone”, “ml) were” for “ml) are”, “animals were” for “animals are”
as §1, with “morphine” for “betamethasone”
as §1, with “μl) were” for “μl) are”, “of salicylate, lidocaine,” for “of salicylate”, “and morphine” for “and betamethasone”

[3] = sampled at 3-day intervals over 3 weeks

| Structure (SMILES) | joint swelling [1] | serum ovalbumin antibody titers [1] | betamethasone levels (synovial fluid and serum) ([2]; after the early time points) | betamethasone levels in serum ([2]; early time points) | betamethasone levels in synovial fluid ([2]; early time points) | morphine serum levels [2, 3] | morphine synovial fluid levels [2, 3] |
| --- | --- | --- | --- | --- | --- | --- | --- |
| C[C@H]1C[C@H]2[C@@H]3CCC4=CC(=O)C=C[C@]4(C)[C@@]3(F)[C@@H](O)C[C@]2(C)[C@@]1(O)C(=O)COP(=O)([O-])[O-].[Na+].[Na+] [betamethasone, betamethasone sodium phosphate] | significantly reduced | significantly reduced | undetectable | low | low | – | – |
| CN1CC[C@]23c4c5ccc(O)c4O[C@H]2[C@@H](O)C=C[C@H]3[C@H]1C5.O=S(=O)(O)O [morphine, morphine sulfate] | – | – | – | – | – | undetectable | undetectable |
